# Source: ChEMBL document CHEMBL1148637, “The combi-targeting concept: synthesis of stable nitrosoureas designed to inhibit the epidermal growth factor receptor (EGFR)” (J Med Chem, 2006)
# Assays:
# [1] = molecular target: Epidermal growth factor receptor (Homo sapiens, UniProt P00533); experiment: Inhibition of EGFR tyrosine kinase
# [2] = system: NIH3T3; experiment: Inhibition of serum-stimulated proliferation of mouse NIH3T3 cell line after 24 hrs; type: functional, cell-based; conditions: NIH3T3, 24 h
# Chain of Epidermal growth factor receptor (P00533 whole entry): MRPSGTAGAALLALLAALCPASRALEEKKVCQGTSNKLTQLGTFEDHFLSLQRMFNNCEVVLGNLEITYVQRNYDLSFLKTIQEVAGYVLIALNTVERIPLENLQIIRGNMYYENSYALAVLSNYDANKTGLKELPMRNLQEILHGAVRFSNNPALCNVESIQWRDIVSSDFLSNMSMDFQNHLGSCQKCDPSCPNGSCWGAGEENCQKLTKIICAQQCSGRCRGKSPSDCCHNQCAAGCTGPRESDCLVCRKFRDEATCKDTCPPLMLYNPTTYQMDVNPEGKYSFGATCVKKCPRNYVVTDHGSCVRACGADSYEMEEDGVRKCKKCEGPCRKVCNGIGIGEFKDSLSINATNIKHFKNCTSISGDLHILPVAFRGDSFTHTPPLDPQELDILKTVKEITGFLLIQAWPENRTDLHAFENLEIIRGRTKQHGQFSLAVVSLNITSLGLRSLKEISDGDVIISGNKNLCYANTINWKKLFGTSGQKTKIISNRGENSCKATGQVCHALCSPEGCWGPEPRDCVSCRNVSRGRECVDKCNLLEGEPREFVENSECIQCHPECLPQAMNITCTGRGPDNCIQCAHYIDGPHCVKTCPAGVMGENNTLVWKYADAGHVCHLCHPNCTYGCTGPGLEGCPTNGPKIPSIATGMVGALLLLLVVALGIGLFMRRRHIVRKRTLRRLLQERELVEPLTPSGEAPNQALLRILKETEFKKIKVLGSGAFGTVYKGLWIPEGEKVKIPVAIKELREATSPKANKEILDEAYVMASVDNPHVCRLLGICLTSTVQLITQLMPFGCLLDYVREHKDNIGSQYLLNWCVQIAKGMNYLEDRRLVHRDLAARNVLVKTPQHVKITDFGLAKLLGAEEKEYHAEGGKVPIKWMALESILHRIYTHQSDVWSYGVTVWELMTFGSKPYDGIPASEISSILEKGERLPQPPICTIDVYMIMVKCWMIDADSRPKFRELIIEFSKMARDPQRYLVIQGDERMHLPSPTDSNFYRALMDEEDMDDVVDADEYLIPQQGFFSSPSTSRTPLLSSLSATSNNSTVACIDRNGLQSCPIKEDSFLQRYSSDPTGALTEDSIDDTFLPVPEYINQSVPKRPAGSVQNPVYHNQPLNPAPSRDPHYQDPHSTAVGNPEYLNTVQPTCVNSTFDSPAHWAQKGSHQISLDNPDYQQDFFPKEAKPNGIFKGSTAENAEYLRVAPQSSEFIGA
Compound,IC50 [1] [µM],IC50 [2] [µM]
O=C(NCCCl)Nc1ccc2ncnc(Nc3cccc(Br)c3)c2c1,0.018,35.9
Cc1cccc(Nc2ncnc3ccc(NC(=O)NCCCl)cc23)c1,0.676,31
CNc1ccc2ncnc(Nc3cccc(C)c3)c2c1,0.011,42.8
CNc1ccc2ncnc(Nc3cccc(Cl)c3)c2c1,0.004,49.8
Cc1cccc(Nc2ncnc3ccc(N(C)C(=O)N(CCCl)N=O)cc23)c1,,16.5
CN(C(=O)N(CCCl)N=O)c1ccc2ncnc(Nc3cccc(Cl)c3)c2c1,0.204,11.7
O=C(NCCCl)Nc1ccc2ncnc(Nc3cccc(Cl)c3)c2c1,0.022,157
Cc1cccc(Nc2ncnc3ccc(NC(=O)N(CCCl)N=O)cc23)c1,1.06,78.5
O=NN(CCCl)C(=O)Nc1ccc2ncnc(Nc3cccc(Cl)c3)c2c1,,157
O=NN(CCCl)C(=O)Nc1ccc2ncnc(Nc3cccc(Br)c3)c2c1,0.047,36.4
CN(C(=O)N(CCCl)N=O)c1ccc2ncnc(Nc3cccc(Br)c3)c2c1,0.294,10.8
Cc1cccc(Nc2ncnc3ccc(N)cc23)c1,,44.2
Nc1ccc2ncnc(Nc3cccc(Cl)c3)c2c1,,97
CNc1ccc2ncnc(Nc3cccc(Br)c3)c2c1,0.005,17.6
Nc1ccc2ncnc(Nc3cccc(Br)c3)c2c1,,26.7
